From patent US10316054B2, “Preparation and use of crystalline beta-D-nicotinamide riboside” (GlaxoSmithKline Intellectual Property (No. 2) Limited, priority 2014, dated 2019)
Each block holds one compound with its values, some of them ahead of it.

Legend:
[1] = Behaviour of the solid on filtration under ambient conditions / ambient humidity; type: physicochemical
Protocol: Crude product (351 g) from the above example was dissolved in 1.5 L of methanol, then 625 mL of methanol was removed in vacuo. For the initial crystallization experiments, this solution was placed in a glass round-bottomed flask, and the side was scratched with a metal spatula. The solution was then stored at −20° C. for several weeks until a crystalline precipitate formed. […] For subsequent preparations, the methanol solution was seeded with 100 mg of crystalline nicotinamide riboside chloride, and the solution was allowed to stand at ambient temperature while the product crystallized over the course of several hours. Using a Buchner funnel filtration apparatus, the crystals were filtered and washed with 200 mL of ice-cold methanol. The product was dried on the filter, open to the air, for 1.5 h, then under high vacuum (<[…]) at ambient temperature for 18 h. The yield was 157 g (34%) of a light yellow solid. The product contained 0.9 molar equivalents of methanol by ^1H NMR integration (i.e., nicotinamide riboside chloride ●0.9 methanol crystals). This residual methanol could not be removed by additional drying at <40° C. […]

[2] = Thermal decomposition of the crystals on heating under vacuum, confirmed by 1H NMR in D2O; type: physicochemical
Protocol: The crystalline nature of this product was confirmed by optical microscopy using polarized light (FIG. 5). A 50 mg portion of this material was dried under high vacuum (<1.0 mm Hg) and at ambient temperature for 48 h. […] The material completely decomposed, without melting, within 17 min at 100° C. at <1 mm Hg. (Decomposition was confirmed by ^1H NMR spectral analysis in D2O solution after the heating period.) In contrast, a sample could be heated at 80° C. for 1 h and <1 mm Hg with <3% decomposition. ^1H NMR (400 MHz, D2O) δ 9.63 (s, 1H, H2), 9.31 (d, 1H, J=5.9 Hz, H4), 9.01 (dd, 1H, J=8.0 Hz, 1.0 Hz, H6), 8.32 (dd, 1H, J=8.0 Hz, 5.9 Hz, H5), 6.29 (d, 1H, J=3.9 Hz, H1′), 4.55 (t, 1H, J=3.9 Hz, H2′), 4.50 (m, 1H, H4′), 4.38 (t, 1H, J=3.9 Hz, H3′), 4.08 (dd, 1H, J=12, 3 Hz, H5′), 3.93 (dd, 1H, J=12, 3, Hz, H5′); ^13C NMR (75 MHz, D2O) δ 165.8 (C7), 145.6 (C6), 142.6 (C4), 140.4 (C2), 133.9 (C3), 128.4 (C5), 99.9 (C1′), 87.6 (C4′), 77.4 (C2′), 69.7 (C3′), 60.1 (C5′); IR (cm−1) 3299, 1700, 1398, 1080, 982, 887, 795 (see FIG. 8). XRPD (degrees) 14.2, 17.1, 20.5, 22.7, 23.8, 25.1, 26.8, 34.2 X-ray powder diffraction (XRPD) data are included as FIG. 6. The XRPD serves as a fingerprint for the crystalline form of nicotinamide riboside chloride with only trace residual solvents present.

[3] = system: Human primary dermal fibroblasts (HDFa); assay: NAD measurement in dermal fibroblasts treated with NR chloride (ADPR cyclase enzymatic assay, absorbance 405 nm); type: cell-based; conditions: for NAD levels: FIG. 16
Protocol: Human primary dermal fibroblasts derived from adult human skins (HDFa, Life technologies, Grand Island, NY, Passage 2-4) were grown in Medium 106 (Life Technologies) supplemented with Low Serum Growth Supplement (LSGS) (Life Technologies) and seeded in 12-well plates with density at 2×10^5 cells per well and 1 ml of culture medium in each well.
Stock solution of NR chloride (MW: 322.742, GSK3002633B) was prepared freshly in water at 100 mM. Cells were treated with NR chloride at different concentrations as shown in […] for 6 and 24 hrs, washed twice with PBS containing 5 mM EDTA, and then subject to Nicotinamide adenine dinucleotide (NAD) measurement. In brief, acetonitrile (ACN) lysis buffer (Ammonium Acetate (50 mM) and 90% acetonitrile) was added to each well (200 μl/well) to lyse the cells at RT for 5-10 mins by gently rotating on a culture plate shaker at a low speed. Enzyme master mix (300 μM of 5-Amino-(3,4′-bipyridin)-6(1H)-one (Inamrinone) (Sigma-Aldrich), a substrate for ADP ribosyl cyclase (ADPR cyclase)) and 30 nM ADPR Cyclase (Sigma, St. Louis, Mont.), in 75 mM HEPES pH7 buffer (Life Technologies)) was added to the lysed cells (400 μl of enzyme master mix/well). Enzymatic reaction was incubated at RT for ˜30 min. At the end of incubation, the supernatant (200 μl) of the reaction solution from each well was transferred to each well of a 96-well plate and absorbance was read twice in the 96-well plate at 405 nm using a plate reader (Spectra Maxplus, Molecular Devices, Sunnyvale, Calif.). A mixture of enzyme master mix and ACN extraction solution at 2:1 ratio was used as a blank reference.
Isolated, chemically-pure NAD (Sigma) was used as a positive control. Other NAD assays are known in the art or otherwise publically available as a kit (see, e.g., Neubert, D., et al., Biochim. Biophys. Acta, 1964, 92, 610-12; Emanuelli, M., et al. J. Chromatog. B. 676, 13-18; and NAD/NADH Cell-Based Assay Kit by Cayman Chemical).

Structure (SMILES): NC(=O)c1ccc[n+]([C@@H]2O[C@H](CO)[C@@H](O)[C@H]2O)c1.[Cl-] [Example 3, 3-carbamoyl-1-((2R,3R,4S,5R)-3,4-dihydroxy-5-(hydroxymethyl)tetrahydrofuran-2-yl)pyridin-1-ium chloride]
behaviour on the filter under ambient conditions [1]: could be filtered under ambient conditions while remaining free-flowing

time to complete decomposition, without melting ([2]; 100° C. at <1 mm Hg): ≤ 17 min
decomposition ([2]; heated at 80° C. for 1 h and <1 mm Hg): < 3%
Structure (SMILES): NC(=O)c1ccc[n+]([C@@H]2O[C@H](CO)[C@@H](O)[C@H]2O)c1.[Cl-] [Example 4, nicotinamide riboside chloride]
resistance to decomposition upon heating ([2]; compared with amorphous forms of nicotinamide riboside): far more resistant to decomposition upon heating than amorphous forms

NAD levels ([3]; 6 hrs treatment): dose-dependently increased NAD levels
NAD levels ([3]; 24 hrs treatment): dose-dependently increased NAD levels
Structure (SMILES): NC(=O)c1ccc[n+]([C@@H]2O[C@H](CO)[C@@H](O)[C@H]2O)c1.[Cl-] [NR chloride, nicotinamide riboside chloride]
intracellular NAD levels ([3]; FIG. 16, time not given): dose-dependently increases intracellular NAD levels
